The test system of this test is BDF1 mice, L1210 leukemia sc, survival T/C. In words: NCI In Vivo Anticancer Drug Screen. Data for tumor model L1210 Leukemia (subcutaneous) in B6D2F1 (BDF1) mice. Particulars: endpoint: median survival time, higher = longer survival. Put shortly: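 Tumors were transplanted into mice, the animals were treated with compound, survival or tumor size was then measured, and treated values were divided by vehicle-control values.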

Values joined by “and” are separate entries in the source; they are usually repeats but may differ in a detail not shown here. Equal values may be shown once. Toxic doses and inconclusive results are not listed.

`C=CC(COC(C)=O)N1CC1` (configuration not stated): the T/C by setting is: (dose: 4.7 mg/kg/injection, schedule: Q01DX Z (sc), vehicle: saline) 100 % of control; (dose: 7.8 mg/kg/injection, schedule: Q01DX Z (sc), vehicle: saline) 100 % of control; (dose: 13.0 mg/kg/injection, schedule: Q01DX Z (sc), vehicle: saline) 100 % of control; (dose: 36.0 mg/kg/injection, schedule: Q01DX Z (sc), vehicle: saline) 100 % of control; (dose: 60.0 mg/kg/injection, schedule: Q01DX Z (sc), vehicle: saline) 100 % of control.

As for `CC[n+]1c(-c2ccccc2)c2cc(N)ccc2c2ccc(N)cc21`, the T/C (dose: 39.0 mg/kg/injection, schedule: Q01DX Z (sc), vehicle: carboxymethylcellulose (CMC)) was 110 % of control; the T/C (dose: 65.0 mg/kg/injection, schedule: Q01DX Z (sc), vehicle: carboxymethylcellulose (CMC)) is 115 % of control; the T/C (dose: 108.0 mg/kg/injection, schedule: Q01DX Z (sc), vehicle: carboxymethylcellulose (CMC)) is 95 % of control.

Regarding `Nc1ncn(C2OC(CO)C(O)C2O)c(=O)n1` (configuration not stated), the T/C by setting is: (dose: 0.5 mg/kg/injection, schedule: Q01DX009 (sc), vehicle: saline) 105 % of control; (dose: 0.5 mg/kg/injection, schedule: Q03HX024 (sc), vehicle: saline) 104 % of control; (dose: 0.75 mg/kg/injection, schedule: Q01DX009 (ip), vehicle: saline) 155 % of control; (dose: 0.75 mg/kg/injection, schedule: Q01DX009 (sc), vehicle: saline) 155 % of control; (dose: 1.0 mg/kg/injection, schedule: Q01DX009 (sc), vehicle: saline) 110 % of control and 111 % of control (2×); (dose: 1.0 mg/kg/injection, schedule: Q03HX024 (sc), vehicle: saline) 118 % of control. Besides, the T/C is 116 % of control and 119 % of control (dose: 1.0 mg/kg/injection, schedule: Q05DX009 (sc), vehicle: saline); 205 % of control (dose: 1.5 mg/kg/injection, schedule: Q01DX009 (ip), vehicle: saline); 200 % of control (dose: 1.5 mg/kg/injection, schedule: Q01DX009 (sc), vehicle: saline); 120 % of control and 121 % of control and 122 % of control (dose: 2.0 mg/kg/injection, schedule: Q01DX009 (sc), vehicle: saline); 100 % of control (dose: 2.0 mg/kg/injection, schedule: Q04DX003 (sc), vehicle: saline); 122 % of control and 123 % of control (dose: 2.0 mg/kg/injection, schedule: Q05DX009 (sc), vehicle: saline). The T/C (dose: 3.0 mg/kg/injection, schedule: Q01DX009 (sc), vehicle: saline) is 172 % of control; the T/C (dose: 3.0 mg/kg/injection, schedule: Q04DX003 (sc), vehicle: saline) is 122 % of control; the T/C (dose: 4.0 mg/kg/injection, schedule: Q01DX001 (sc), vehicle: saline) was 100 % of control; the T/C (dose: 4.0 mg/kg/injection, schedule: Q03HX024 (sc), vehicle: saline) was 151 % of control; the T/C (dose: 4.0 mg/kg/injection, schedule: Q04DX003 (sc), vehicle: saline) is 100 % of control; the T/C (dose: 6.0 mg/kg/injection, schedule: Q01DX009 (ip), vehicle: saline) was 88 % of control. For the same compound, the T/C runs as follows: (dose: 6.0 mg/kg/injection, schedule: Q01DX009 (sc), vehicle: saline) 100 % of control; (dose: 6.0 mg/kg/injection, schedule: Q04DX003 (ip), vehicle: saline) 200 % of control; (dose: 6.0 mg/kg/injection, schedule: Q04DX003 (sc), vehicle: saline) 183 % of control; (dose: 8.0 mg/kg/injection, schedule: Q01DX001 (sc), vehicle: saline) 105 % of control; (dose: 8.0 mg/kg/injection, schedule: Q01DX009 (sc), vehicle: saline) 105 % of control; (dose: 8.0 mg/kg/injection, schedule: Q03HX024 (sc), vehicle: saline) 110 % of control. Further, the T/C reads like this: (dose: 8.0 mg/kg/injection, schedule: Q04DX003 (sc), vehicle: saline) 110 % of control; (dose: 12.0 mg/kg/injection, schedule: Q01DX001 (sc), vehicle: saline) 155 % of control; (dose: 12.0 mg/kg/injection, schedule: Q04DX003 (ip), vehicle: saline) 150 % of control; (dose: 12.0 mg/kg/injection, schedule: Q04DX003 (sc), vehicle: saline) 150 % of control; (dose: 16.0 mg/kg/injection, schedule: Q01DX001 (sc), vehicle: saline) 120 % of control; (dose: 16.0 mg/kg/injection, schedule: Q01DX009 (sc), vehicle: saline) 108 % of control and 111 % of control. Besides, the T/C reads like this: (dose: 16.0 mg/kg/injection, schedule: Q04DX003 (sc), vehicle: saline) 120 % of control; (dose: 16.0 mg/kg/injection, schedule: Q05DX009 (sc), vehicle: saline) 111 % of control and 113 % of control; (dose: 24.0 mg/kg/injection, schedule: Q01DX001 (ip), vehicle: saline) 155 % of control; (dose: 24.0 mg/kg/injection, schedule: Q01DX001 (sc), vehicle: saline) 166 % of control; (dose: 24.0 mg/kg/injection, schedule: Q04DX003 (sc), vehicle: saline) 105 % of control; (dose: 48.0 mg/kg/injection, schedule: Q01DX001 (ip), vehicle: saline) 166 % of control. Moreover, the T/C was 166 % of control (dose: 48.0 mg/kg/injection, schedule: Q01DX001 (sc), vehicle: saline); 100 % of control (dose: 48.0 mg/kg/injection, schedule: Q04DX003 (ip), vehicle: saline); 122 % of control (dose: 48.0 mg/kg/injection, schedule: Q04DX003 (sc), vehicle: saline).

Turning to `CC1CC(C)(O)CC(C(O)CC2CC(=O)NC(=O)C2)C1=O` (configuration not stated), the T/C reads like this: (dose: 0.14 mg/kg/injection, schedule: Q01DX Z (sc), vehicle: saline) 108 % of control; (dose: 0.24 mg/kg/injection, schedule: Q01DX Z (sc), vehicle: saline) 120 % of control; (dose: 0.39 mg/kg/injection, schedule: Q02DX Z (sc), vehicle: saline) 120 % of control; (dose: 0.4 mg/kg/injection, schedule: Q01DX Z (sc), vehicle: saline) 116 % of control; (dose: 0.65 mg/kg/injection, schedule: Q02DX Z (sc), vehicle: saline) 120 % of control; (dose: 0.67 mg/kg/injection, schedule: Q01DX Z (sc), vehicle: saline) 116 % of control. Further, the T/C (dose: 1.08 mg/kg/injection, schedule: Q01DX Z (sc), vehicle: saline) is 120 % of control; the T/C (dose: 1.08 mg/kg/injection, schedule: Q02DX Z (sc), vehicle: saline) was 120 % of control; the T/C (dose: 1.08 mg/kg/injection, schedule: Q## X Z (sc), vehicle: saline) was 110 % of control; the T/C (dose: 1.12 mg/kg/injection, schedule: Q01DX Z (sc), vehicle: saline) is 104 % of control; the T/C (dose: 1.8 mg/kg/injection, schedule: Q01DX Z (sc), vehicle: saline) was 120 % of control; the T/C (dose: 1.8 mg/kg/injection, schedule: Q02DX Z (sc), vehicle: saline) was 120 % of control. Further, the T/C by setting is: (dose: 1.8 mg/kg/injection, schedule: Q## X Z (sc), vehicle: saline) 110 % of control; (dose: 1.87 mg/kg/injection, schedule: Q01DX Z (sc), vehicle: saline) 100 % of control; (dose: 3.0 mg/kg/injection, schedule: Q01DX001 (sc), vehicle: saline) 120 % of control; (dose: 3.0 mg/kg/injection, schedule: Q01DX Z (sc), vehicle: saline) 110 % of control; (dose: 3.0 mg/kg/injection, schedule: Q## X Z (sc), vehicle: saline) 115 % of control; (dose: 3.11 mg/kg/injection, schedule: Q01DX Z (sc), vehicle: saline) 100 % of control. Also, the T/C was 120 % of control (dose: 5.0 mg/kg/injection, schedule: Q01DX001 (sc), vehicle: saline); 100 % of control (dose: 5.0 mg/kg/injection, schedule: Q01DX Z (sc), vehicle: saline); 115 % of control (dose: 5.0 mg/kg/injection, schedule: Q## X Z (sc), vehicle: saline); 110 % of control (dose: 8.4 mg/kg/injection, schedule: Q02DX Z (sc), vehicle: saline); 120 % of control (dose: 8.4 mg/kg/injection, schedule: Q## X Z (sc), vehicle: saline); 100 % of control (dose: 14.0 mg/kg/injection, schedule: Q02DX Z (sc), vehicle: saline). The T/C (dose: 14.0 mg/kg/injection, schedule: Q## X Z (sc), vehicle: saline) was 120 % of control.

The record behind these values is PubChem BioAssay AID250 (DTP/NCI, 2004).
